Measurements published in PubChem BioAssay (NCI).
Several values for one entry are separate records, joined by “and”; a condition that tells them apart may be missing. Equal values may be shown once.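 These data come from cells grown in 96-well plates and exposed to compound for 48 hours at five concentrations. Abbreviation: GI50, concentration required for 50% inhibition of growth. TGI denotes the concentration required for complete inhibition of growth.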

Columns and labels:
Assay in all cases: DTP human tumour cell line panel, 48 h
[1] = tested on: A549 NSCLC
[2] = tested on: EKVX NSCLC
[3] = tested on: HS 578T breast
[4] = tested on: NCI-H23 lung
[5] = tested on: NCI-H522 lung
[6] = tested on: SF-268 CNS
[7] = tested on: SW-620 colon
[8] = tested on: T-47D breast
[9] = tested on: TK-10 renal
[10] = tested on: UO-31 renal

SMILES: CCN1CCC(CNC(=O)c2ccc(N)cc2)N1CC (stereo not drawn)
- TGI [1]: > 100 µM
- TGI [2]: > 100 µM
- TGI [3]: > 100 µM
- TGI [4]: > 100 µM
- TGI [5]: > 100 µM
- TGI [6]: > 100 µM
- TGI [7]: > 100 µM
- TGI [8]: > 100 µM
- TGI [9]: > 100 µM
- TGI [10]: > 100 µM

SMILES: CN(C)c1ccc(/C=C/c2sc3ccccc3[n+]2C)cc1
- TGI [1]: 16.7 µM and 17.2 µM
- GI50 [2]: 9.19 µM and 2.31 µM
- TGI [2]: 31.9 µM and 19.8 µM
- TGI [3]: 36.8 µM and 46.1 µM
- TGI [4]: 8.47 µM and 16.7 µM
- TGI [5]: 11.1 µM and 7.29 µM
- TGI [6]: 17.5 µM and 23 µM
- TGI [8]: 11.1 µM and 30.5 µM
- TGI [9]: 16 µM and 24.9 µM
- GI50 [10]: 2.91 µM

SMILES: COc1ccccc1C1(c2c(OC)c(=O)c2=O)SCCCS1
- TGI [1]: > 100 µM
- TGI [2]: > 100 µM
- TGI [3]: > 100 µM
- TGI [4]: > 100 µM
- TGI [5]: > 100 µM
- TGI [6]: > 100 µM
- TGI [7]: > 100 µM
- TGI [8]: > 100 µM
- TGI [9]: > 100 µM
- TGI [10]: > 100 µM

SMILES: Cc1ccc2nc(-c3ccc(C(C)(C)C)cc3)oc(=O)c2c1
- TGI [1]: > 100 µM
- TGI [2]: 69.8 µM
- TGI [3]: 81.3 µM
- TGI [4]: 68.1 µM
- TGI [5]: 35 µM
- TGI [6]: 70.7 µM
- TGI [7]: > 100 µM
- TGI [8]: 83.4 µM
- TGI [9]: > 100 µM
- TGI [10]: 70 µM

SMILES: Nc1nc(Cl)c(Cl)c(NCC2(O)CCC2)n1
- TGI [1]: > 100 µM
- TGI [2]: > 100 µM
- TGI [3]: > 100 µM
- TGI [4]: > 100 µM
- TGI [5]: 40.9 µM
- TGI [6]: > 100 µM
- TGI [7]: > 100 µM
- TGI [8]: 64.2 µM
- TGI [9]: > 100 µM
- TGI [10]: > 100 µM

SMILES: O=C(Nc1ccc(S(=O)(=O)/N=c2\ncccn2C(=O)C(C(F)(F)F)C(F)(F)F)cc1)C(C(F)(F)F)C(F)(F)F
- TGI [1]: > 100 µM
- TGI [2]: > 100 µM
- TGI [3]: > 100 µM
- TGI [4]: > 100 µM
- TGI [5]: > 100 µM
- TGI [6]: > 100 µM
- TGI [8]: > 100 µM
- TGI [9]: > 100 µM

SMILES: CC(=O)OCC1OC(n2c(S)c(C#N)c(-c3ccccc3)c(C#N)c2=O)C(OC(C)=O)C(OC(C)=O)C1OC(C)=O (stereo not drawn)
- TGI [1]: > 100 µM
- GI50 [2]: > 100 µM and 25.1 µM
- TGI [2]: > 100 µM and 76.1 µM
- TGI [3]: > 100 µM
- GI50 [4]: > 100 µM and 45 µM
- TGI [4]: > 100 µM
- GI50 [5]: 54.8 µM and 27 µM
- TGI [5]: > 100 µM and 51.3 µM
- TGI [6]: > 100 µM and 61.7 µM
- GI50 [7]: > 100 µM and 49.9 µM
- TGI [7]: > 100 µM
- GI50 [8]: > 100 µM and 18.6 µM
- TGI [8]: > 100 µM and 54.4 µM
- GI50 [9]: 90.7 µM and 24.9 µM
- TGI [9]: > 100 µM and 86.5 µM
- GI50 [10]: > 68.1 µM and 29.1 µM
- TGI [10]: > 100 µM and 87.3 µM

SMILES: CC1(C)COC2=C(C1)C(=O)c1ccccc1C2=O
- TGI [1]: 4.76 µM
- TGI [2]: 3.59 µM
- TGI [3]: 7.95 µM
- TGI [4]: 3.46 µM
- TGI [5]: 3.8 µM
- TGI [6]: 3.57 µM
- TGI [7]: 4.03 µM
- TGI [8]: 2.44 µM
- TGI [9]: 3.19 µM
- TGI [10]: 2.21 µM

SMILES: C=C1C(=O)O[C@H]2C[C@@H]1[C@@H](O)[C@H](O)[C@@H](C)CCCC(C)=CCC[C@@]2(C)O
- TGI [1]: > 100 µM
- TGI [2]: > 100 µM
- TGI [3]: 43.9 µM
- TGI [4]: 42.7 µM
- TGI [5]: 33.9 µM
- TGI [6]: 73 µM
- TGI [8]: 57.1 µM
- TGI [9]: 30.4 µM
- TGI [10]: 28.5 µM

SMILES: CCOC(=O)c1c(SC(=O)c2ccc(OC)cc2)n(-c2ccccc2)c(=S)n(-c2ccccc2)c1=O
- TGI [1]: > 100 µM
- TGI [2]: > 100 µM
- TGI [3]: > 100 µM
- TGI [4]: > 100 µM
- TGI [5]: > 100 µM
- TGI [6]: 43.4 µM
- TGI [7]: 52.5 µM
- TGI [8]: > 100 µM
- TGI [9]: > 100 µM
